Measurements taken from patent US20230123585A1, “COMPOSITIONS AND METHODS FOR TREATING OR PREVENTING CANCER USING DEUBIQUITINASE INHIBITORS” (The University of Chicago, priority 2020, published 2023).

How the values were obtained:
[1] = system: METTL3 / m^6A methyltransferase complex in A375 cells; assay: Immunoblot of METTL3 / m^6A methyltransferase complex protein in A375 cell lysates; assay type: cell-based, human
Experimental: FIGS. 6A-6H: Phosphorylation of the m^6A Methyltransferase Complex May Affect Tumorigenesis. (A) Lysates of A375 stable transfectants harvested at different time points after treatment with cycloheximide (CHX) 10 μg/ml were analyzed by immunoblot. (B) LC-MS/MS quantification of the m^6A/A ratio in mRNA of A375 stable transfectants. (C) After 8 h treatment with 10 μM PD0325901 or 0.1 μM tramentib, cell lysates from A375 cells were analyzed by immunoblot. (D) LC-MS/MS quantification of the m^6A/A ratio in mRNA of A375 cells treated with 10 μM PD0325901 or 0.1 μM tramentib for 48 h. (E) After 8hr treatment with 10 μM EOAI3402143 (EOAI) or 30 μM vialinin A , cell lysates from A375 cells were analyzed by immunoblot. (F) A375 stable transfectants as indicated were treated with 3 μM EOAI3402143 (EOAI) or 10 μM vialinin A before measuring cell viability by SRB assay. Data are presented as relative to the R-WT cells without drug treatment (n=3 per group, data represent mean±SEM). (G) Immunofluorescence analysis of METTL3 (green) in SKBR3 cells treated with 1 μM tucatinib and 1 μM lapatinib for 8 hr. DAPI (blue) was used to mark the nucleus. (H) LC-MS/MS quantification of the m^6A/A ratio in mRNA of SKBR3 and BT474 cells treated with 1 μM tucatinib and 1 μM lapatinib for 48 h. (See also FIG. 14.)
FIGS. 11A-11G: USP5 is Required for ERK-Mediated METTL3 Stabilization. (A) A375 cells transfected with HA-ubiquitin (ub) were treated with 10 μM MG-132 and MEK inhibitor PD0325901 for 8 h. The ubiquitination of METTL3 was detected by IP with anti-METTL3 and immunoblot with anti-HA. (B) After 8 h treatment with 10 μM PD0325901 with or without 10 μM MG-132, cell lysates from A375 cells were analyzed by immunoblot. (C) A375 cells were treated with various concentrations of PD0325901 for 1 h. Cell lysates were subjected to IP with METTL3 antibody followed by immunoblot. (D) 293T cells transfected as indicated were subjected to IP/immunoblot analysis. (E) Immunofluorescence analysis of myc-METTL3 (green) in mESC stable transfectants. DAPI (blue) was used to mark the nucleus. (F) Lysates of 293T cells transfected as indicated were subjected to IP with anti-Flag antibody followed by immunoblot. (G) Immunofluorescence analysis of 293T cells co-transfected with myc-METTL3 (green), Flag-USP5 (red) with or without constitutively active B-RAF.
Immunoprecipitation, immunoblotting, and in vitro kinase assay. Immunoprecipitation (IP) and immunoblotting (IB) were performed as previously described (Sun et al., 2016). In brief, protein samples were isolated from respective cells by lysis in RIPA buffer (1% Triton X-100, 150 mM NaCl, 20 mM Na2PO4, pH 7.4) containing Halt Protease and Phosphatase Inhibitor Cocktail (Thermo Scientific). Subsequently, a BCA assay (Thermo Scientific) was used to determine the protein concentrations. For IP, indicated antibody and protein A/G magnetic beads (Thermo Scientific) were incubated with lysate at 4° C. overnight followed by washing and elution with sample buffer. Equal amounts of protein were separated by SDS-PAGE followed by wet transfer to PVDF membranes. Blots were blocked with 5% non-fat milk or BSA and incubated with respective primary antibody at 4° C. overnight. Primary antibodies were detected by HRP-linked secondary antibodies (Cell Signaling) together with SuperSignal West Pico Plus chemiluminescent substrate (Thermo Scientific) and imaged in a FluorChem R system (ProteinSimple).

[2] = system: pluripotency transcripts in R-WT mESCs; assay: Turnover of m^6A-labeled pluripotency transcripts by qPCR after actinomycin D in mESCs; assay type: cell-based, mouse; conditions: 10 μM PD0325901, 5 μg/ml actinomycin D
Description: FIGS. 4A-4E: Phosphorylation of METTL3/WTAP by ERK Facilitates Resolution of Pluripotency. (A) LC-MS/MS quantification of the m^6A/A ratio in mRNA of mESC stable transfectants. (B) Representative flow cytometry analyses of mESC stable transfectants for the activity of alkaline phosphatase (AP) and expression of stage-specific embryonic antigen-1 (SSEA-1). (C) qPCR analysis of pluripotency genes in R-3A2A versus R-WT mESCs. (D) Relative levels of Nanog, measured by qPCR, at the indicate times after 5 μg/ml actinomycin D treatment. mRNA levels were monitored in R-WT (black), R-WT with 10 μM PD0325901 (green), and R-3A2A (red) mESC. (E) qPCR analysis for pluripotency and differentiation markers expression after 8 days of embryonic body (EB) induction. Error bars indicated SD (n=3). (See also FIG. 12.)
FIGS. 12A-12I: Phosphorylation of METTL3/WTAP by ERK Facilitates Resolution of Pluripotency. (A) Representative phase-contrast microscopy showing colony size of R-3A2A versus R-WT mESC cells. (B) Cell growth of R-WT and R-3A2A mESCs were measured by sulforhodamine B dye (SRB assay). […] (D-H) Relative levels of Zfp42, Klf2, Sox2, Lefty1, and Pou5f 1, measured by qPCR, at the indicate times after 5 μg/ml actinomycin D treatment. mRNA levels were monitored in R-WT (black), R-WT with 10 μM PD0325901 (green), and R-3A2A (red) mESCs. […]

## O=C(NOC[C@H](O)CO)c1ccc(F)c(F)c1Nc1ccc(I)cc1F [PD0325901]
[1]; A375 cells, 10 μM PD0325901, 8 h
  degradation of METTL3: increased
[1]; A375 melanoma cells, 8 h, 10 μM PD0325901 or 0.1 μM trametinib
  protein levels of the m^6A methyltransferase complex: reduce
[2]
  turnover of m^6A-labeled pluripotency transcripts after transcription arrest: delayed turnover
